Reference: patent US20230381774A1, “MICROFLUDIC LAB-ON-CHIP DEVICE, MATRIX, SMALL MOLECULES AND THREE-DIMENSIONAL SPHEROIDS FOR CELL REPROGRAMMING” (The Regents of the University of California, priority 2022, published 2023)

How the values were obtained:
ERK = experiment: Downstream ERK signaling (Western blot); assay type: cell-based, mouse
Experimental: Fibroblasts were lysed and collected in Laemmli buffer ([…] Tris-HCl, 10% glycerol, 2% SDS, 5% 2-mercaptoethanol, 0.002% bromophenol blue) containing RIPA buffer (50 mM Tris-HCl, 150 mM NaCl, 1% Triton-X-100, 0.1% SDS, 10 mM NaF, 0.5% sodium deoxycholate) along with protease inhibitors (PMSF, Na3VO4 and Leupeptin) on ice. Protein lysates were centrifuged to pellet cell debris, and the supernatant was collected and used in further analysis. Protein samples were run using SDS-PAGE and transferred to polyvinylidene fluoride (PVDF) membranes. Membranes were blocked in 3% nonfat milk and incubated with primary antibodies overnight. Primary antibodies include pFAK, FAK, αSMA, Calponin, pERK, ERK, and GAPDH. Membranes were washed with Tris-Buffered Saline+0.05% Tween-20 and incubated with HRP-conjugated IgG secondary antibodies (Santa Cruz Biotechnologies) for one hour. Protein bands were visualized using Western Lightning™ Plus—Enhanced Chemiluminscence Substrate (Perkin Elmer Life & Analytical Sciences) and imaged on a ChemiDoc XRS system (Bio-Rad).

fibroblasts = experiment: Cell morphology, actin and focal adhesion immunostaining; assay type: cell-based, mouse; conditions: 24 hours
Experimental: For immunostaining, cells were fixed with 4% paraformaldehyde (Electron Microscopy Sciences), permeabilized with 0.5% Triton-X-100 (Sigma), and blocked with 5% donkey serum (Jackson Immunoresearch) in phosphate buffered saline (PBS). For actin-cytoskeleton staining, samples were incubated with fluorescein isothiocyanate-conjugated phalloidin (Invitrogen) for 1 hour. Primary antibodies were incubated for 1 hour at room temperature or overnight at 4° C., followed by 1-hour incubation with Alexa 488 and/or Alexa 546-labeled secondary antibodies (Molecular Probes). Nuclei were stained with 4,6-diamino-2-phenylindole (DAPI) (Invitrogen).

SMILES	downstream ERK signaling (ERK)	actin fibers (fibroblasts)	paxillin punctate (fibroblasts)	cell morphology and spreading (fibroblasts; 10 μM)
CS(=O)(=O)c1cccc(CNc2nc(Nc3ccc4c(c3)CCC(=O)N4)ncc2C(F)(F)F)c1 [PF573228]	modulated downstream ERK signaling			
Cc1ccc2c(c1)C(=O)C1(O)CCN(c3ccccc3)C1=N2 (stereo not shown) [blebbistatin]		fewer intact actin fibers	fewer positive paxillin punctate	induced dramatic changes in cell morphology and reduced cell spreading
